Target: T1, human PF4 (Homo sapiens, UniProt P02776)
T1 construct: PF4 is a 70 amino acid, lysine-rich 7.8 kDa platelet-specific protein; made in house; host or cells: Escherichia coli BL21DE3 pLysS (pT7-7) and/or Drosophila S2 cells
T1 sequence (P02776 32-101): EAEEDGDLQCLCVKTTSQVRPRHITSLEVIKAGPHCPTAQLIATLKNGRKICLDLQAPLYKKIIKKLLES
Experiment: Inhibition of PF4 tetramer formation (BS3 cross-linking, SDS-PAGE)
Type: biochemical
Details: for inhibition at 5 µM: 5 μM inhibitor; for inhibition at 5 µM / inhibition at 10 µM / inhibition at 1 µM / inhibition at 3 µM: read-out: % inhibition of PF4 tetramer formation at single concentration of inhibitor; for inhibition at 10 µM: 10 μM inhibitor (column A); for IC50: read-out: IC50 of PF4 tetramer formation inhibition; for inhibition at 1 µM: 1 μM inhibitor; for inhibition at 3 µM: 3 μM inhibitor (column A)
Method: Compounds of Examples 1-38, 65-301, 303, 305, 307, 309, 311, 313, 314, 316, and 318-404 were tested using SDS PAGE analysis of BS3 crosslinked PF4 for their ability to prevent PF4 tetramer formation. […] See, Suvarna et al., Throm. Res, 122:211-220 (2008), which is hereby incorporated by reference, at least for a detailed description of this technique.
cDNA encoding human PF4 was cloned into the plasmid μMT/BiPN5-His A (Invitrogen Corp., Carlsbad CA) for expression in the Drosophila Expression System (Invitrogen, Carlsbad, CA). Cloning was performed using Bg1 II and Age I cloning sites. A hexanucleotide encoding Bg1 II site was then eliminated by site-directed mutagenesis so that the expressed protein contained full-length wild type (wt) PF4 or PF4^K50E with an identical sequence as their counterparts expressed in E. coli. See, method described in Sachais et al (Sachais, B. S. et al. (2012). Blood 119(25): 5955-5961). PF4 expression was induced by adding copper sulfate (0.5 mM). The induced S2 cells were incubated in serumfree Insect-Xpress™ media (Lonza, Walkersville, MD) for 3-5 days; supernatants were collected, sodium azide (0.02% final concentration) and EDTA (2.5 mM final concentration) were added, and the media were filtered through an Express® PLUS 0.22 μm filter (Millipore Corp., Billerica, MA).
Wild-type (WT) human PF4 in the pT7-7 vector (Novagen, Madison, WI) was expressed in the Escherichia coli strain BL21DE30 pLysS (Stratagene, La Jolla, CA), and purified and characterized as described by Rauova et al. (Rauova, L. et al. (2006). Blood 107(6): 2346-2353) and Park et al., (Blood, 75:1290-1295 (1990)), which are hereby incorporated by reference. Briefly, recombinant protein was isolated from the supernatant of the bacterial lysate by affinity chromatography using a HiTrap high-performance (HP) affinity column. WT PF4 was purified from the media on a heparin HiTrap® column on an ÄTKAPrime™ system (GE Healthcare) at 4° C. in Tris (10 mM), EDTA (1 mM), and pH 8 buffer. Media was loaded in buffer containing NaCl (0.5 M) and PF4 was eluted at 1.8 M NaCl using a linear gradient. Fractions containing purified PF4 as detected by silver staining of 12% NuPAGE Bis-Tris gels (Invitrogen) were pooled, concentrated and buffer exchanged into 50 mM HEPES, 0.5 M NaCl, pH—7.2 using an Amicon® Ultra centrifugal filter (3K NMWL, Millipore Corp). Protein was quantified using a BCA assay.
Compounds of Examples 1-38, 65-196, and 209-228 were then tested for their ability to inhibit PF4 tetramer formation using a cross-linking assay as described in Rauova cited above. Specifically, hPF4 (10 μg/ml) in phosphate-buffered saline (PBS) was incubated at 37° C. for 15 min in the absence of the antagonistic compounds (control sample) and presence of compounds. Cross-linking and SDS-PAGE analysis were then performed as described in “Analysis of PF4 multimerization” of Rauova. The relative amounts of PF4 in each of the monomer, dimer, trimer and tetramer form were calculated by analyzing the samples on a 12% SDS-polyacrylamide gel under reducing conditions. Bands were quantified using the Kodak ID Image Analysis system (Kodak, Rochester, NY). The SigmaMarker™ reagent served as the molecular weight standard. Data was compiled and bar graphed as % PF4 for the tetramer, trimer, dimer, and monomer as a function of concentration for the test and control samples.
This experiment was performed in a manner similar to experiment 1, but PF4 (10 μg/ml) in PBS was independently incubated with compounds of Examples 1-38, 65-196, and 209-228 for 60 min at room temperature, followed by the addition of cross-linking reagent bis(sulfosuccinimidyl)suberate (0.2 mM) for 30 min at room temperature. The reaction was stopped by adding NuPAGE® lithium dodecyl sulfate (LDS) sample buffer, and denatured by heating to 70° C. for 10 min according to the manufacturer's instructions. […]

CC(C)(C)CC(=O)NCC(=O)C1C(=O)c2ccc(S(=O)(=O)c3ccc4c(c3)C(=O)C(C(=O)CNC(=O)CC(C)(C)C)C4=O)cc2C1=O (stereo not drawn) [Example 186, N-{2-[5-({2-[2-(3,3-dimethylbutanamido)acetyl]-1,3-dioxo-2,3-dihydro-1H-inden-5-yl}sulfonyl)-1,3-dioxo-2,3-dihydro-1H-inden-2-yl]-2-oxoethyl}-3,3-dimethylbutanamide]
inhibition at 5 µM: 95% | inhibition at 10 µM: 95% | IC50: 2600 nM

CC(=O)C1C(=O)c2ccc(S(=O)(=O)c3ccc4c(c3)C(=O)C(C(C)=O)C4=O)cc2C1=O (stereo not drawn) [Example 2, 5,5′-sulfonylbis(2-acetyl-1h-indene-1,3(2h)-dione)]
IC50: 18000 nM

CC(C)[C@@H](N)C(=O)C1C(=O)c2ccc(C(=O)c3ccc4c(c3)C(=O)C(C(=O)[C@H](N)C(C)C)C4=O)cc2C1=O (stereo partly drawn) [Example 352, 2-[(2R)-2-amino-3-methylbutanoyl]-5-{2-[(2R)-2-amino-3-methylbutanoyl]-1,3-dioxo-2,3-dihydro-1H-indene-5-carbonyl}-2,3-dihydro-1H-indene-1,3-dione]
inhibition at 1 µM: 35% | inhibition at 3 µM: 78%

O=C(c1ccc2c(c1)C(=O)C(C(=O)Nc1cccc(Cl)c1)C2=O)c1ccc2c(c1)C(=O)C(C(=O)Nc1cccc(Cl)c1)C2=O (stereo not drawn) [Example 79, N-(3-chlorophenyl)-5-{2-[(3-chlorophenyl)carbamoyl]-1,3-dioxo-2,3-dihydro-1H-indene-5-carbonyl}-1,3-dioxo-2,3-dihydro-1H-indene-2-carboxamide]
IC50: 1000 nM

CCOCC(=O)C1C(=O)c2ccc(C(=O)c3ccc4c(c3)C(=O)C(C(=O)COCC)C4=O)cc2C1=O (stereo not drawn) [Example 229, 2-(2-ethoxyacetyl)-5-[2-(2-ethoxyacetyl)-1,3-dioxo-2,3-dihydro-1H-indene-5-carbonyl]-2,3-dihydro-1H-indene-1,3-dione]
inhibition at 1 µM: 43% | inhibition at 3 µM: 53%

CSCC(=O)C1C(=O)c2ccc(C(=O)c3ccc4c(c3)C(=O)C(C(=O)CSC)C4=O)cc2C1=O (stereo not drawn) [Example 281, 2-[2-(methylsulfanyl)acetyl]-5-{2-[2-(methylsulfanyl)acetyl]-1,3-dioxo-2,3-dihydro-1H-indene-5-carbonyl}-2,3-dihydro-1H-indene-1,3-dione]
inhibition at 10 µM: 58% | IC50: 10000 nM

COCCOCCC(=O)C1C(=O)c2ccc(C(=O)c3ccc4c(c3)C(=O)C(C(=O)CCOCCOC)C4=O)cc2C1=O (stereo not drawn) [Example 382, 2-[3-(2-methoxyethoxy)propanoyl]-5-{2-[3-(2-methoxyethoxy)propanoyl]-1,3-dioxo-2,3-dihydro-1H-indene-5-carbonyl}-2,3-dihydro-1H-indene-1,3-dione]
inhibition at 1 µM: 20% | inhibition at 3 µM: 70% | IC50: 290 nM

O=C(O)CNC(=O)C1C(=O)c2ccc(C(=O)c3ccc4c(c3)C(=O)C(C(=O)NCC(=O)O)C4=O)cc2C1=O (stereo not drawn) [Example 309, 2-[(5-{2-[(carboxymethyl)carbamoyl]-1,3-dioxo-2,3-dihydro-1H-indene-5-carbonyl}-1,3-dioxo-2,3-dihydro-1H-inden-2-yl)formamido]acetic acid]
inhibition at 1 µM: 20% | inhibition at 3 µM: 32%

CN1CCC[C@H]1C(=O)C1C(=O)c2ccc(S(=O)(=O)c3ccc4c(c3)C(=O)C(C(=O)[C@@H]3CCCN3C)C4=O)cc2C1=O (stereo partly drawn) [Example 167, 2-[(2S)-1-methylpyrrolidine-2-carbonyl]-5-({2-[(2S)-1-methylpyrrolidine-2-carbonyl]-1,3-dioxo-2,3-dihydro-1H-inden-5-yl}sulfonyl)-2,3-dihydro-1H-indene-1,3-dione]
inhibition at 5 µM: 18% | inhibition at 10 µM: 36%

O=C(O)CNC(=O)C1C(=O)c2ccc(Oc3ccc4c(c3)C(=O)C(C(=O)NCC(=O)O)C4=O)cc2C1=O (stereo not drawn) [Example 307, 2-{[5-({2-[(carboxymethyl)carbamoyl]-1,3-dioxo-2,3-dihydro-1H-inden-5-yl}oxy)-1,3-dioxo-2,3-dihydro-1H-inden-2-yl]formamido}acetic acid]
inhibition at 1 µM: 15% | inhibition at 3 µM: 47%

COCCOCCNC(=O)C1C(=O)c2ccc(C#Cc3ccc4c(c3)C(=O)C(C(=O)NCCOCCOC)C4=O)cc2C1=O (stereo not drawn) [Example 381, N-[2-(2-methoxyethoxy)ethyl]-5-[2-(2-{[2-(2-methoxyethoxy)ethyl]carbamoyl}-1,3-dioxo-2,3-dihydro-1H-inden-5-yl)ethynyl]-1,3-dioxo-2,3-dihydro-1H-indene-2-carboxamide]
inhibition at 1 µM: 7% | inhibition at 3 µM: 19%

O=C(c1ccc2c(c1)C(=O)C(C(=O)CCC(=O)c1cccc(Cl)c1Cl)C2=O)c1ccc2c(c1)C(=O)C(C(=O)CCC(=O)c1cccc(Cl)c1Cl)C2=O (stereo not drawn) [Example 253, 2-[4-(2,3-dichlorophenyl)-4-oxobutanoyl]-5-{2-[4-(2,3-dichlorophenyl)-4-oxobutanoyl]-1,3-dioxo-2,3-dihydro-1H-indene-5-carbonyl}-2,3-dihydro-1H-indene-1,3-dione]
inhibition at 1 µM: 20% | inhibition at 3 µM: 20%

CSCC(=O)C1C(=O)c2ccc(Oc3ccc4c(c3)C(=O)C(C(=O)CSC)C4=O)cc2C1=O (stereo not drawn) [Example 280, 2-[2-(methylsulfanyl)acetyl]-5-({2-[2-(methylsulfanyl)acetyl]-1,3-dioxo-2,3-dihydro-1H-inden-5-yl}oxy)-2,3-dihydro-1H-indene-1,3-dione]
inhibition at 1 µM: 23% | inhibition at 3 µM: 43% | IC50: 3000 nM

O=C(c1ccc2c(c1)C(=O)C(C(=O)C1CCC1)C2=O)c1ccc2c(c1)C(=O)C(C(=O)C1CCC1)C2=O (stereo not drawn) [Example 299, 2-cyclobutanecarbonyl-5-(2-cyclobutanecarbonyl-1,3-dioxo-2,3-dihydro-1H-indene-5-carbonyl)-2,3-dihydro-1H-indene-1,3-dione]
inhibition at 1 µM: 32% | inhibition at 3 µM: 56%

COCC(=O)C1C(=O)c2ccc(S(=O)(=O)c3ccc4c(c3)C(=O)C(C(=O)COC)C4=O)cc2C1=O (stereo not drawn) [Example 377, 2-(2-methoxyacetyl)-5-{[2-(2-methoxyacetyl)-1,3-dioxo-2,3-dihydro-1H-inden-5-yl]sulfonyl}-2,3-dihydro-1H-indene-1,3-dione]
inhibition at 1 µM: 26% | inhibition at 3 µM: 41%

CC(=O)C1C(=O)c2ccc(N(C)S(=O)(=O)c3ccc4c(c3)C(=O)C(C(C)=O)C4=O)cc2C1=O (stereo not drawn) [Example 314, -acetyl-N-(2-acetyl-1,3-dioxo-2,3-dihydro-1H-inden-5-yl)-N-methyl-1,3-dioxo-2,3-dihydro-1H-indene-5-sulfonamide]
inhibition at 1 µM: 9% | inhibition at 3 µM: 28%

Source: patent US20250281424A1 (New York Blood Center, Inc, priority 2020, published 2025)
